Results reported in US8163793B2, “Proline derivatives” (Hoffman-La Roche Inc., priority 2009, dated 2012).
Like-named read-outs stand apart in the source and are kept apart here.

How the values were obtained:
[1] = target: Cathepsin S (UniProt P25774); assay: Cathepsin enzyme inhibition assay (fluorogenic peptide substrate Z-Val-Val-Arg-AMC), Cathepsin S; assay type: biochemical, human and mouse
How it was run: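 Human or mouse cathepsin S (1 nM) was run in 100 mM potassium phosphate pH 6.5 with 5 mM EDTA, 0.001% Triton X-100 and 5 mM DTT. The rise in AMC fluorescence from cleavage was measured, and IC50 values were calculated by standard methods and expressed in μM.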

[2] = target: Cat L (UniProt P07711); assay: Cathepsin enzyme inhibition assay (fluorogenic peptide substrate Z-Val-Val-Arg-AMC), Cathepsin L; assay type: biochemical, human and mouse
How it was run: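 Cathepsin L at 1 nM was mixed with compound, then started with 20 μM Z-Val-Val-Arg-AMC in pH 6.5 potassium phosphate with EDTA, Triton X-100 and 5 mM DTT. AMC fluorescence (ex 360/em 465 nm) was followed over 20 min. IC50 is given in μM.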

[3] = enzyme 1 nM, substrate 20 μM, pH 6.5; read-out: CatS IC50
[4] = enzyme 1 nM, substrate 20 μM, pH 6.5; read-out: CatL IC50

Row | Structure (SMILES) | IC50 [1, 3] [nM] | IC50 [2, 4] [nM] | IC50 ([1]; read-out: CatS IC50; enzyme 1 nM, substrate 20 μM, pH 6.5) [nM] | IC50 ([2]; read-out: CatL IC50; enzyme 1 nM, substrate 20 μM, pH 6.5) [nM]
1 | N#CC1(NC(=O)[C@@H]2C[C@@H](S(=O)(=O)c3ccc(OCC(F)(F)F)cc3Cl)CN2C(=O)Cc2ccc(Cl)cc2)CC1 [Example 244, (2S,4R)-1-[2-(4-Chloro-phenyl)-acetyl]-4-[2-chloro-4-(2,2,2-trifluoro-ethoxy)-benzenesulfonyl]-pyrrolidine-2-carboxylic acid (1-cyano-cyclopropyl)-amide] | 3.15 | 5900 | – | –
2 | N#CC1(NC(=O)[C@@H]2C[C@@H](S(=O)(=O)c3ccc(-c4ccnc(Cl)c4)cc3C(F)(F)F)CN2C(=O)C2(C(F)(F)F)CC2)CC1 [Example 245, (2S,4R)-4-[4-(2-Chloro-pyridin-4-yl)-2-trifluoromethyl-benzenesulfonyl]-1-(1-trifluoromethyl-cyclopropanecarbonyl)-pyrrolidine-2-carboxylic acid (1-cyano-cyclopropyl)-amide] | 0.168 | 39200 | – | –
3 | N#CC1(NC(=O)[C@@H]2C[C@@H](S(=O)(=O)c3ccc(OCC(F)(F)F)cc3Cl)CN2C(=O)C2CC2c2ccccc2)CC1 (stereo partly shown) [Example 247] | 0.385 | 3440 | – | –
4 | Cc1cc(-c2ccc(S(=O)(=O)[C@@H]3C[C@@H](C(=O)NC4(C#N)CC4)N(C(=O)C4(C(F)(F)F)CC4)C3)c(C(F)(F)F)c2)ccn1 [Example 248, (2S,4R)-4-[4-(2-Methyl-pyridin-4-yl)-2-trifluoromethyl-benzenesulfonyl]-1-(1-trifluoromethyl-cyclopropanecarbonyl)-pyrrolidine-2-carboxylic acid (1-cyano-cyclopropyl)-amide] | – | – | 0.55 | 54700
5 | N#CC1(NC(=O)[C@@H]2C[C@@H](S(=O)(=O)c3ccc(OCC(F)(F)F)cc3Cl)CN2C(=O)Oc2ccc(Cl)cc2)CC1 [Example 252, (2S,4R)-4-[2-Chloro-4-(2,2,2-trifluoro-ethoxy)-benzenesulfonyl]-2-(1-cyano-cyclopropylcarbamoyl)-pyrrolidine-1-carboxylic acid 4-chloro-phenyl ester] | 1.75 | ≥ 25000 | – | –
6 | Cc1cc(N2C[C@H](S(=O)(=O)c3ccccc3Cl)C[C@H]2C(=O)NC2(C#N)CC2)n(-c2ccc(C(F)(F)F)cc2)n1 [Example 253, (2S,4R)-4-(2-Chloro-benzenesulfonyl)-1-[5-methyl-2-(4-trifluoromethyl-phenyl)-2H-pyrazol-3-yl]-pyrrolidine-2-carboxylic acid (1-cyano-cyclopropyl)-amide] | 1.1 | 1380 | – | –
7 | Cc1cc(N2C[C@H](S(=O)(=O)c3ccccc3Cl)C[C@H]2C(=O)NC2(C#N)CC2)n(-c2ccnc(Cl)c2)n1 [Example 254, (2S,4R)-4-(2-Chloro-benzenesulfonyl)-1-[2-(2-chloro-pyridin-4-yl)-5-methyl-2H-pyrazol-3-yl]-pyrrolidine-2-carboxylic acid (1-cyano-cyclopropyl)-amide] | 0.83 | 2260 | – | –
8 | N#CC1(NC(=O)[C@@H]2C[C@@H](S(=O)(=O)c3ccc(C4CC4)cc3C(F)(F)F)CN2C(=O)C2(C(F)(F)F)CC2)CC1 [Example 256, (2S,4R)-4-(4-Cyclopropyl-2-trifluoromethyl-benzenesulfonyl)-1-(1-trifluoromethyl-cyclopropanecarbonyl)-pyrrolidine-2-carboxylic acid (1-cyano-cyclopropyl)-amide] | 0.26 | 45700 | – | –
9 | CC1(C(=O)N2C[C@H](S(=O)(=O)c3ccc(-c4ccc(F)cc4F)cc3C(F)(F)F)C[C@H]2C(=O)NC2(C#N)CC2)CC1 [Example 259, (2S,4R)-4-(2′,4′-Difluoro-3-trifluoromethyl-biphenyl-4-sulfonyl)-1-(1-methyl-cyclopropanecarbonyl)-pyrrolidine-2-carboxylic acid (1-cyano-cyclopropyl)-amide] | 0.19 | 79500 | – | –
10 | CN1CCN(c2ccc(S(=O)(=O)[C@@H]3C[C@@H](C(=O)NC4(C#N)CC4)N(C(=O)C4(C(F)(F)F)CC4)C3)c(C(F)(F)F)c2)CC1 [Example 260, (2S,4R)-4-[4-(4-Methyl-piperazin-1-yl)-2-trifluoromethyl-benzenesulfonyl]-1-(1-trifluoromethyl-cyclopropanecarbonyl)-pyrrolidine-2-carboxylic acid (1-cyano-cyclopropyl)-amide] | 0.245 | 16500 | – | –

Continued, in another order:

Row | IC50 [1, 3] [nM] | IC50 [2, 4] [nM] | Structure (SMILES) | IC50 ([1]; read-out: CatS IC50; enzyme 1 nM, substrate 20 μM, pH 6.5) [nM] | IC50 ([2]; read-out: CatL IC50; enzyme 1 nM, substrate 20 μM, pH 6.5) [nM]
11 | 4.75 | 1430 | CC(C)(C)OC(=O)NC1(C(=O)N2C[C@H](S(=O)(=O)c3ccc(OCC(F)(F)F)cc3Cl)C[C@H]2C(=O)NC2(C#N)CC2)CC1 [Example 242, {1-[(2S,4R)-4-[2-Chloro-4-(2,2,2-trifluoro-ethoxy)-benzenesulfonyl]-2-(1-cyano-cyclopropylcarbamoyl)-pyrrolidine-1-carbonyl]-cyclopropyl}-carbamic Acid Tert-butyl ester] | – | –
12 | 0.455 | 12300 | N#CC1(NC(=O)[C@@H]2C[C@@H](S(=O)(=O)c3ccc(OCC(F)(F)F)cc3Cl)CN2C(=O)C2(C#N)CC2)CC1 [Example 243, (2S,4R)-4-[2-Chloro-4-(2,2,2-trifluoro-ethoxy)-benzenesulfonyl]-1-(1-cyano-cyclopropanecarbonyl)-pyrrolidine-2-carboxylic acid (1-cyano-cyclopropyl)-amide] | – | –
13 | 0.245 | 185 | N#CC1(NC(=O)[C@@H]2C[C@@H](S(=O)(=O)c3ccc(OCC(F)(F)F)cc3Cl)CN2C(=O)C2CC2c2ccccc2)CC1 (stereo partly shown) [Example 246] | – | –
14 | 0.255 | 25800 | Cn1cc(-c2ccc(S(=O)(=O)[C@@H]3C[C@@H](C(=O)NC4(C#N)CC4)N(C(=O)C4(C)CC4)C3)c(C(F)(F)F)c2)cn1 [Example 249, (2S,4R)-1-(1-Methyl-cyclopropanecarbonyl)-4-[4-(1-methyl-1H-pyrazol-4-yl)-2-trifluoromethyl-benzenesulfonyl]-pyrrolidine-2-carboxylic acid (1-cyano-cyclopropyl)-amide] | – | –
15 | 0.29 | 1250 | N#CC1(NC(=O)[C@@H]2C[C@@H](S(=O)(=O)c3ccc(OCC(F)(F)F)cc3Cl)CN2C(=O)C(F)(F)c2ccccc2)CC1 [Example 251, (2S,4R)-4-[2-Chloro-4-(2,2,2-trifluoro-ethoxy)-benzenesulfonyl]-1-(2,2-difluoro-2-phenyl-acetyl)-pyrrolidine-2-carboxylic acid (1-cyano-cyclopropyl)-amide] | – | –
16 | 0.195 | 48200 | Cc1cc(-c2ccc(S(=O)(=O)[C@@H]3C[C@@H](C(=O)NC4(C#N)CC4)N(C(=O)C4(C)CC4)C3)c(C(F)(F)F)c2)ccn1 [Example 257, (2S,4R)-1-(1-M ethyl-cyclopropanecarbonyl)-4-[4-(2-methyl-pyridin-4-yl)-2-trifluoromethyl-benzenesulfonyl]-pyrrolidine-2-carboxylic acid (1-cyano-cyclopropyl)-amide] | – | –
17 | 0.19 | 58000 | CC1(C(=O)N2C[C@H](S(=O)(=O)c3ccc(-c4ccnc(Cl)c4)cc3C(F)(F)F)C[C@H]2C(=O)NC2(C#N)CC2)CC1 [Example 258, (2S,4R)-4-[4-(2-Chloro-pyridin-4-yl)-2-trifluoromethyl-benzenesulfonyl]-1-(1-methyl-cyclopropanecarbonyl)-pyrrolidine-2-carboxylic acid (1-cyano-cyclopropyl)-amide] | – | –
